Test results as given in ChEMBL document CHEMBL5678810.

Experiments:
[1] = system: Tyrosine-protein kinase ABL1 (Homo sapiens), P00519 [E255K]; assay: Inhibition of T7 bacteriophage fused human phosphorylated ABL1 E255K mutant at 10 uM by KINOMEscan analysis relative to control
[2] = target: Activin receptor type-1B (Homo sapiens) (UniProt P36896); assay: Inhibition of T7 bacteriophage fused human ACVR1B at 10 uM by KINOMEscan analysis relative to control
[3] = target: Mitogen-activated protein kinase kinase kinase 5 (Homo sapiens) (UniProt Q99683); assay: Inhibition of T7 bacteriophage fused human ASK1 at 10 uM by KINOMEscan analysis relative to control
[4] = target: Bone morphogenetic protein receptor type-1A (Homo sapiens) (UniProt P36894); assay: Inhibition of T7 bacteriophage fused human BMPR1A at 10 uM by KINOMEscan analysis relative to control
[5] = target: Bone morphogenetic protein receptor type-1B (Homo sapiens) (UniProt O00238); assay: Inhibition of T7 bacteriophage fused human BMPR1B at 10 uM by KINOMEscan analysis relative to control
Chain of Bone morphogenetic protein receptor type-1B (Homo sapiens) (O00238 whole entry, the tested form may be a part): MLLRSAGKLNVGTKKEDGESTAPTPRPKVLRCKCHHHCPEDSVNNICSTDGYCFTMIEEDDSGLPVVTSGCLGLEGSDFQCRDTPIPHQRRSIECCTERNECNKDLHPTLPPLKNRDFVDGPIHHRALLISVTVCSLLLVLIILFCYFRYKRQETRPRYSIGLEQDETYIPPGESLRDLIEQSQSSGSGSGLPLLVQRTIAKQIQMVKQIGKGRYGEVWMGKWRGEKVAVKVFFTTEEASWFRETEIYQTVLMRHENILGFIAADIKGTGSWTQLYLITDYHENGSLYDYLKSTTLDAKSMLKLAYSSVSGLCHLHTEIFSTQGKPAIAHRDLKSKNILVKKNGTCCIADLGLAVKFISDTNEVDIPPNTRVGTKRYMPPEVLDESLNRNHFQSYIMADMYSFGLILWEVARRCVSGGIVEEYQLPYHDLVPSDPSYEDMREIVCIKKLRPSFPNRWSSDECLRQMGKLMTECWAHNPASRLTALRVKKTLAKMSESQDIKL

[6] = target: Serine/threonine-protein kinase BRSK2 (Homo sapiens) (UniProt Q8IWQ3); assay: Inhibition of T7 bacteriophage fused human BRSK2 at 10 uM by KINOMEscan analysis relative to control
[7] = target: Calcium/calmodulin-dependent protein kinase type II subunit gamma (Homo sapiens) (UniProt Q13555); assay: Inhibition of T7 bacteriophage fused human CAMK2G at 10 uM by KINOMEscan analysis relative to control
Chain of Calcium/calmodulin-dependent protein kinase type II subunit gamma (Homo sapiens) (Q13555 whole entry, the tested form may be a part): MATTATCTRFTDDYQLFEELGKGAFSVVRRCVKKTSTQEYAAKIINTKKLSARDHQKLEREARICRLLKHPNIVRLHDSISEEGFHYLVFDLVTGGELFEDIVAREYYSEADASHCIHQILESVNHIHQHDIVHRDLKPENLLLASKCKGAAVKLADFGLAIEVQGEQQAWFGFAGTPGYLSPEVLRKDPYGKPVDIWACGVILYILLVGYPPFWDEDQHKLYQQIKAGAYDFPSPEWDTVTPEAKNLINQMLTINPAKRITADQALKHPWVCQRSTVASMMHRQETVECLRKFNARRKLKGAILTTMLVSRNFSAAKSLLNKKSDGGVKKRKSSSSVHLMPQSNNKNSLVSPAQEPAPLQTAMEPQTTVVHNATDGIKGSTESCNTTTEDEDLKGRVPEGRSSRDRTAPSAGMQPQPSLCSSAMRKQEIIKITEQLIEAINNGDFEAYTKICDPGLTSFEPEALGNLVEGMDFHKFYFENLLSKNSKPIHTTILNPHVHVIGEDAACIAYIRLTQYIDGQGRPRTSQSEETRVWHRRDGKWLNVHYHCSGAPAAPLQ

[8] = target: Serine/threonine-protein kinase Chk1 (Homo sapiens) (UniProt O14757); assay: Inhibition of T7 bacteriophage fused human CHEK1 at 10 uM by KINOMEscan analysis relative to control
[9] = target: Casein kinase I isoform gamma-2 (Homo sapiens) (UniProt P78368); assay: Inhibition of T7 bacteriophage fused human CSNK1G2 at 10 uM by KINOMEscan analysis relative to control
[10] = target: Serine/threonine-protein kinase 17A (Homo sapiens) (UniProt Q9UEE5); assay: Inhibition of T7 bacteriophage fused human DRAK1 at 10 uM by KINOMEscan analysis relative to control
[11] = target: Tyrosine-protein kinase Fyn (Homo sapiens) (UniProt P06241); assay: Inhibition of T7 bacteriophage fused human FYN at 10 uM by KINOMEscan analysis relative to control
[12] = target: Homeodomain-interacting protein kinase 4 (Homo sapiens) (UniProt Q8NE63); assay: Inhibition of T7 bacteriophage fused human HIPK4 at 10 uM by KINOMEscan analysis relative to control
[13] = target: Interleukin-1 receptor-associated kinase 3 (Homo sapiens) (UniProt Q9Y616); assay: Inhibition of T7 bacteriophage fused human IRAK3 at 10 uM by KINOMEscan analysis relative to control
[14] = target: Tyrosine-protein kinase JAK3 (Homo sapiens) (UniProt P52333); assay: Inhibition of T7 bacteriophage fused human JAK3 JH1catalytic domain at 10 uM by KINOMEscan analysis relative to control
Chain of Tyrosine-protein kinase JAK3 (Homo sapiens) (P52333 whole entry, the tested form may be a part): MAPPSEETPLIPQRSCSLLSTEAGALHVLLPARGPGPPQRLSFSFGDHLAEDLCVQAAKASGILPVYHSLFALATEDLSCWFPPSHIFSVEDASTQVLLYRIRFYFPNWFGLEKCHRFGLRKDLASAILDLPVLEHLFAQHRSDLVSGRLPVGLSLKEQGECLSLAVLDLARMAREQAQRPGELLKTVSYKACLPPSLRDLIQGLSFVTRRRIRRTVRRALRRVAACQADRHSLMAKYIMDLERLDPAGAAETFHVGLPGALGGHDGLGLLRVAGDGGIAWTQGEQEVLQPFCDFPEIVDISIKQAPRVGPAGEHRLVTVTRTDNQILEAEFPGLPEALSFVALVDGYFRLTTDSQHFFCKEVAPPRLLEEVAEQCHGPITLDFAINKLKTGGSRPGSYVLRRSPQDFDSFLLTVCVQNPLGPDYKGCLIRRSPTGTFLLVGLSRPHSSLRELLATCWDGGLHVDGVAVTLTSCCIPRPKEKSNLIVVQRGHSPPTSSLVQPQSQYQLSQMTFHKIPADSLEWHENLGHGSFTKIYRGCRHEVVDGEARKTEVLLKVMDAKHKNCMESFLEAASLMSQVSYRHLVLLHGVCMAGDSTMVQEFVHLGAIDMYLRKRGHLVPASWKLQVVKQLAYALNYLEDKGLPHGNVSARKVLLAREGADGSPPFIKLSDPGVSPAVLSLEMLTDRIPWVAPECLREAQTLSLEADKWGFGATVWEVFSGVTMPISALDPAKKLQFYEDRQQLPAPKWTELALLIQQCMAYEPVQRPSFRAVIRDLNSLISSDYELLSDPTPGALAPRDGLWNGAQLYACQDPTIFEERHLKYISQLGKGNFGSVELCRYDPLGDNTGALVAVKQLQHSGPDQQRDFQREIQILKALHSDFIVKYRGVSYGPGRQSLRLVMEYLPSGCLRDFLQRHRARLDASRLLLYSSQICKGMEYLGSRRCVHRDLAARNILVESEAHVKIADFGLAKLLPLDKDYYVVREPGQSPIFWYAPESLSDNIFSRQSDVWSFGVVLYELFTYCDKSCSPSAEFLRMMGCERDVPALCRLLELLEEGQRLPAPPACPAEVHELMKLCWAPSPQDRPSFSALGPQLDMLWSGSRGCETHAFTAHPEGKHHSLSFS

[15] = target: Serine/threonine-protein kinase MARK2 (Homo sapiens) (UniProt Q7KZI7); assay: Inhibition of T7 bacteriophage fused human MARK2 at 10 uM by KINOMEscan analysis relative to control
Chain of Serine/threonine-protein kinase MARK2 (Homo sapiens) (Q7KZI7 whole entry, the tested form may be a part): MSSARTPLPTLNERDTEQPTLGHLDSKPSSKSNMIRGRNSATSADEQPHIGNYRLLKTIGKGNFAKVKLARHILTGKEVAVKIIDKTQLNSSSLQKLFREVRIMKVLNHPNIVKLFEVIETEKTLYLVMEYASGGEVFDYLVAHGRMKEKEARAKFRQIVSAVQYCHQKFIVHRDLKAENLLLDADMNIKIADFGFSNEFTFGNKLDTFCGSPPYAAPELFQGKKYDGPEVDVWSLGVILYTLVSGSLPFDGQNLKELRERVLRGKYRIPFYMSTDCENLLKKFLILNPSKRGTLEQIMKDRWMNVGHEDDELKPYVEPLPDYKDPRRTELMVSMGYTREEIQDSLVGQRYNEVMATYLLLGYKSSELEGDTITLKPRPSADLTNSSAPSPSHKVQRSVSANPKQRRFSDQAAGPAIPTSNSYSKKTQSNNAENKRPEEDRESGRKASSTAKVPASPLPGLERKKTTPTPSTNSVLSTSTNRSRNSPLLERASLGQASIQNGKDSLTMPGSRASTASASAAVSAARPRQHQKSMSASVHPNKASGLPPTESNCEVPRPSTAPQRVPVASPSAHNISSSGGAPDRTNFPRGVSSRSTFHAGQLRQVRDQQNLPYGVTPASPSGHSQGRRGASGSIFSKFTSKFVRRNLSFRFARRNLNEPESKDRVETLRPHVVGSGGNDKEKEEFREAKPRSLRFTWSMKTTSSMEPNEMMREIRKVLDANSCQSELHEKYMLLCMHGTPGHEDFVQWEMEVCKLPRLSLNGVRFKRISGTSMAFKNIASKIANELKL

[16] = target: Myosin-IIIb (Homo sapiens) (UniProt Q8WXR4); assay: Inhibition of T7 bacteriophage fused human MYO3B at 10 uM by KINOMEscan analysis relative to control
[17] = target: Serine/threonine-protein kinase Nek9 (Homo sapiens) (UniProt Q8TD19); assay: Inhibition of T7 bacteriophage fused human NEK9 at 10 uM by KINOMEscan analysis relative to control
[18] = target: Platelet-derived growth factor receptor alpha (Homo sapiens) (UniProt P16234); assay: Inhibition of T7 bacteriophage fused human PDGFRA at 10 uM by KINOMEscan analysis relative to control
Chain of Platelet-derived growth factor receptor alpha (Homo sapiens) (P16234 whole entry, the tested form may be a part): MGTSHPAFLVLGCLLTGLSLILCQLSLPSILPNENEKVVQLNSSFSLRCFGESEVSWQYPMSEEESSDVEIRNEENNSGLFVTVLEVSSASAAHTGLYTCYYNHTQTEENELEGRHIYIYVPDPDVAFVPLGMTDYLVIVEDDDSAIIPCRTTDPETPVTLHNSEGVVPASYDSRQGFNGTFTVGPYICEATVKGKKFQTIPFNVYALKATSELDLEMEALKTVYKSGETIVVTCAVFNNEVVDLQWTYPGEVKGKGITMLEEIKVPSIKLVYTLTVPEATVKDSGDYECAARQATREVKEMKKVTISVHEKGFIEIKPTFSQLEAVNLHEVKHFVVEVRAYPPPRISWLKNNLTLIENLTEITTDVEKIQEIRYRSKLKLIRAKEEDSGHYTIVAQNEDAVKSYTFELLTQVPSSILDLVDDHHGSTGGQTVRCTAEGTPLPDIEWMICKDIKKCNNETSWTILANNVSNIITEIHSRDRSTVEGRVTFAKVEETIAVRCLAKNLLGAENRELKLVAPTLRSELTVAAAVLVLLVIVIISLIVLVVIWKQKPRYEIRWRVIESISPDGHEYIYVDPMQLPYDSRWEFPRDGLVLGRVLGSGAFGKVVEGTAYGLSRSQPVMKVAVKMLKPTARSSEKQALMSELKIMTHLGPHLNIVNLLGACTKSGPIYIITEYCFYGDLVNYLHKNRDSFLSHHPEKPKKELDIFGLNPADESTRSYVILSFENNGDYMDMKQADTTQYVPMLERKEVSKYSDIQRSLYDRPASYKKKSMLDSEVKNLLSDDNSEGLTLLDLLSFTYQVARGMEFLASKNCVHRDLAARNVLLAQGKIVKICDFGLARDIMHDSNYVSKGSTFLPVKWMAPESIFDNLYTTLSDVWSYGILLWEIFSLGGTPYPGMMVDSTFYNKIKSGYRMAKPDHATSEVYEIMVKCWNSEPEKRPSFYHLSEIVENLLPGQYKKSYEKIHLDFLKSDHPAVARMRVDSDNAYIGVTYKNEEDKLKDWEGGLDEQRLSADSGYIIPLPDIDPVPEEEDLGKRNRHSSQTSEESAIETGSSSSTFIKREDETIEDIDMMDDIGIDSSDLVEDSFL

[19] = target: 3-phosphoinositide-dependent protein kinase 1 (Homo sapiens) (UniProt O15530); assay: Inhibition of T7 bacteriophage fused human PDPK1 at 10 uM by KINOMEscan analysis relative to control
[20] = target: Phosphorylase b kinase gamma catalytic chain, skeletal muscle/heart isoform (Homo sapiens) (UniProt Q16816); assay: Inhibition of T7 bacteriophage fused human PHKG1 at 10 uM by KINOMEscan analysis relative to control
[21] = target: Phosphatidylinositol 3-kinase C2 domain-containing subunit gamma (Homo sapiens) (UniProt O75747); assay: Inhibition of T7 bacteriophage fused human PIK3C2G at 10 uM by KINOMEscan analysis relative to control
[22] = target: Phosphatidylinositol 5-phosphate 4-kinase type-2 beta (Homo sapiens) (UniProt P78356); assay: Inhibition of T7 bacteriophage fused human PIP5K2B at 10 uM by KINOMEscan analysis relative to control
[23] = target: Serine/threonine-protein kinase PRP4 homolog (Homo sapiens) (UniProt Q13523); assay: Inhibition of T7 bacteriophage fused human PRP4 at 10 uM by KINOMEscan analysis relative to control
Chain of Serine/threonine-protein kinase PRP4 homolog (Homo sapiens) (Q13523 whole entry, the tested form may be a part): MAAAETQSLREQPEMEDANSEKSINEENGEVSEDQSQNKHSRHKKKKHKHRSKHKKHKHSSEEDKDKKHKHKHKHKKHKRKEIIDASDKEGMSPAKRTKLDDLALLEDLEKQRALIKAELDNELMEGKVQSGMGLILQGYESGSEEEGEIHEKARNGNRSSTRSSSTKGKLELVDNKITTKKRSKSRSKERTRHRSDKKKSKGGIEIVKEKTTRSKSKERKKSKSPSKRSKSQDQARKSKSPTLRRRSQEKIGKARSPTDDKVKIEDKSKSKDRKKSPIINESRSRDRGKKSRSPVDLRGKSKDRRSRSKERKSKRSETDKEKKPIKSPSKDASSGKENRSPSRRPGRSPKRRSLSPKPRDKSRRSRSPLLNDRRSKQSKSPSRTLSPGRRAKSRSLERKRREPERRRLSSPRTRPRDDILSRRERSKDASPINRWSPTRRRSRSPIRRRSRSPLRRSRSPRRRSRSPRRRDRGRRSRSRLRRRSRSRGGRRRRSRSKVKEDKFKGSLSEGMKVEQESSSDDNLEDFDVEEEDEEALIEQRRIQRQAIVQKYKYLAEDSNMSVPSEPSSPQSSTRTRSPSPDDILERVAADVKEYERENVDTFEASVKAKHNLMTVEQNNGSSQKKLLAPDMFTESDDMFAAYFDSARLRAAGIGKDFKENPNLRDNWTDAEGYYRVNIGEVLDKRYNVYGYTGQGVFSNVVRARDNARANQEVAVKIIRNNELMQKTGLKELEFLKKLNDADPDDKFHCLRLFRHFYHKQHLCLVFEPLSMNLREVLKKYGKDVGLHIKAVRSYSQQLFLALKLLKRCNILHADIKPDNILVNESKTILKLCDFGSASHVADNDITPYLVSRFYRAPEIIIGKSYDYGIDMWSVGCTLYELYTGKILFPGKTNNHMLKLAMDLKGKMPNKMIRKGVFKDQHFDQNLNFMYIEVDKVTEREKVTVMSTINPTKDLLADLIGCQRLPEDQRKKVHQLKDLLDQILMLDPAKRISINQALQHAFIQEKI

[24] = target: Cyclin-G-associated kinase (Homo sapiens) (UniProt O14976); assay: Inhibition of T7 bacteriophage fused human GAK at 10 uM by KINOMEscan analysis relative to control; values are per cent of control
[25] = target: Fibroblast growth factor receptor 3 (Homo sapiens) (UniProt P22607); assay: Inhibition of T7 bacteriophage fused human FGFR3 at 10 uM by KINOMEscan analysis relative to control; values are per cent of control
[26] = target: Serine/threonine-protein kinase LATS2 (Homo sapiens) (UniProt Q9NRM7); assay: Inhibition of T7 bacteriophage fused human LATS2 at 10 uM by KINOMEscan analysis relative to control; values are per cent of control
[27] = system: Epidermal growth factor receptor (Homo sapiens), P00533 [L858R]; assay: Inhibition of T7 bacteriophage fused human EGFR L858R mutant at 10 uM by KINOMEscan analysis relative to control; values are per cent of control
[28] = system: Receptor-type tyrosine-protein kinase FLT3 (Homo sapiens), P36888 [N841I]; assay: Inhibition of T7 bacteriophage fused human FLT3 N841I mutant at 10 uM by KINOMEscan analysis relative to control; values are per cent of control
[29] = target: Tyrosine-protein kinase JAK2 (Homo sapiens) (UniProt O60674); assay: Inhibition of T7 bacteriophage fused human JAK2 JH1catalytic domain at 10 uM by KINOMEscan analysis relative to control; values are per cent of control
[30] = target: Phosphatidylinositol 5-phosphate 4-kinase type-2 gamma (Homo sapiens) (UniProt Q8TBX8); assay: Inhibition of PIP4K2C ATP labeling site harboring TLVIkEVSSEDIADMHSNLSNYHQYIVK in human PC-3 cell lysate at 10 uM by KiNativ profiling analysis relative to control; assay type: subcellular

In the case of COc1cc(N2CCC(N3CCN(C)CC3)CC2)ccc1Nc1ncc2c(n1)N(C)c1ccccc1C(=O)N2C, the inhibition [1] is reported as 80%, the inhibition [2] is reported as 100% and the inhibition [3] is reported as 100%. It also gave an inhibition [4] of 100%, an inhibition [5] of 76% and an inhibition [6] of 64%. For the same compound, the inhibition [7] was 47%, the inhibition [8] was 100% and the inhibition [9] was 100%. For the same compound, the inhibition [10] was 100%, the inhibition [11] was 100% and the inhibition [12] was 100%. The inhibition [13] was 100%, the inhibition [14] was 100% and the inhibition [15] was 100%. The inhibition [16] was 83%, the inhibition [17] was 100% and the inhibition [18] was 100%. For the same compound, the inhibition [19] was 100%, the inhibition [20] was 54% and the inhibition [21] was 100%. It also gave an inhibition [22] of 100%, an inhibition [23] of 93% and a residual activity [24] of 16%. For the same compound, the residual activity [25] was 80%, the residual activity [26] was 95% and the residual activity [27] was 79%. It also gave a residual activity [28] of 73% and a residual activity [29] of 70%.

For COc1cc(C(=O)N2CCC(N3CCN(C)CC3)CC2)ccc1Nc1ncc2c(n1)N(C1CCCC1)c1ccccc1C(=O)N2C, the inhibition [30] was -0.1%.
